Tests used:
rat mGlu2 receptor = biological target: T1, rat mGlu2 receptor (Rattus norvegicus, UniProt P31421); assay: [3H]-LY354740 binding on mGlu2 transfected CHO cell membranes; conditions: displacement of 10 nM [3H]-LY354740, CHO cell membranes, room temperature, 1 hour
T1 construct: expressed in transfected cells; host or cells: CHO cells, stably transfected with pcD1mGR2 (G-418 selection); membranes used
Description: [^3H]-LY354740 Binding on mGlu2 Transfected CHO Cell Membranes. Transfection and Cell Culture
cDNA encoding the rat mGlu2 receptor protein in pBluescript II was subcloned into the eukaryotic expression vector pcDNA I-amp from Invitrogen Ltd (Paisley, UK). This vector construct (pcD1mGR2) was co-transfected with a psvNeo plasmid encoding the gene for neomycin resistance, into CHO cells by a modified calcium phosphate method described by Chen & Okayama (1988). The cells were maintained in Dulbecco's Modified Eagle medium with reduced L-glutamine (2 mM final concentration) and 10% dialysed foetal calf serum from Gibco-Invitrogen (Carlsbad, Calif., USA). Selection was made in the presence of G-418 (1000 ug/ml final) and […]. Clones were identified by reverse transcription of 5 μg total RNA, followed by PCR using mGlu2 receptor specific primers 5′-[…]-3′ and 5′-[…]-3′ in 60 mM Tris HCl (pH 10), 15 mM (NH4)2SO4, 2 mM MgCl2, 25 units/ml Taq Polymerase with 30 cycles annealing at 60° C. for 1 min., extention at 72° C. for 30 s, and 1 min. 95° C. denaturation.
Cells, cultured as above, were harvested and washed three times with cold PBS and frozen at −80° C. The pellet was resuspended in cold 20 mM HEPES-NaOH buffer containing 10 mM EDTA (pH 7.4), and homogenised with a polytron (Kinematica, AG, Littau, Switzerland) for 10 s at 10 000 rpm. After centrifugation for 30 min. at 4° C., the pellet was washed once with the same buffer, and once with cold 20 mM HEPES-NaOH buffer containing 0.1 mM EDTA, (pH 7.4). Protein content was measured using the micro BCA method from Pierce-Perbio (Rockford, Ill., USA) using bovine serum albumin as standard.
After thawing, the membranes were resuspended in cold 50 mM Tris-HCl buffer containing 2 mM MgCl2 (pH 7) (binding buffer). The final concentration of the membranes in the assays was 25 μg protein/ml. Inhibition experiments were performed with membranes incubated with 10 nM [^3H]-LY354740 at room temperature, for 1 hour, in presence of various concentrations of the compound to be tested. Following the incubations, membranes were filtered onto Whatmann GF/B glass fiber filters and washed 5 times with cold binding buffer. Non specific binding was measured in the presence of 10 μM DCG IV. After transfer of the filters into plastic vials containing 10 ml of Ultima-gold scintillation fluid from Perkin-Elmer (Boston, Mass., USA), the radioactivity was measured by liquid scintillation in a Tri-Carb 2500 TR counter (Packard, Zürich, Switzerland).
The inhibition curves were fitted with a four parameter logistic equation giving IC50 values, and Hill coefficients.

T1 sequence (P31421 19-872): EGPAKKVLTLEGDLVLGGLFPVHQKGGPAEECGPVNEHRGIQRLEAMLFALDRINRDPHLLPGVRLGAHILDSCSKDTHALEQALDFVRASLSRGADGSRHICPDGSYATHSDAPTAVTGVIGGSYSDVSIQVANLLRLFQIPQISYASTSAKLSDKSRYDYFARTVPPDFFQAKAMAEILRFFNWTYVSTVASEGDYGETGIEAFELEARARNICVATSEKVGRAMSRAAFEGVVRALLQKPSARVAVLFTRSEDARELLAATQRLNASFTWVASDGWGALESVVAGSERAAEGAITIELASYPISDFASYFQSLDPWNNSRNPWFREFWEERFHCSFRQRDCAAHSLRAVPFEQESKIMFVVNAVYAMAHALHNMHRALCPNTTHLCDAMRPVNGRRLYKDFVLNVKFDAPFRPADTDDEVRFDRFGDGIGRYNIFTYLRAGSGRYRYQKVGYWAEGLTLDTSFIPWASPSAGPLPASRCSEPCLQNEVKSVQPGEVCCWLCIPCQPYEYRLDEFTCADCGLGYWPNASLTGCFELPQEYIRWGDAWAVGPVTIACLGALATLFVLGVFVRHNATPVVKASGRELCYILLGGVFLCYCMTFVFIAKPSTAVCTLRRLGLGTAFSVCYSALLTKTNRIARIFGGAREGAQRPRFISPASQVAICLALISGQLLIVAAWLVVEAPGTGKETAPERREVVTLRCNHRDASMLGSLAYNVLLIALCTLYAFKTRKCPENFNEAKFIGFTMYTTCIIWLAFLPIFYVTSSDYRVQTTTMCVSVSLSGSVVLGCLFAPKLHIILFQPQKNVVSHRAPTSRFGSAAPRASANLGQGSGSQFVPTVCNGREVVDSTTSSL

SMILES	melting point [°C]	Ki (rat mGlu2 receptor) [nM]
O=C(Nc1cccc(S(=O)(=O)NCC2CC2)c1)c1cnn2c(C(F)F)cc(-c3ccc(C(F)(F)F)cc3)nc12 [Example 73, 7-Difluoromethyl-5-(4-trifluoromethyl-phenyl)-pyrazolo[1,5-a]pyrimidine-3-carboxylic acid [3-(cyclopropylmethyl-sulfamoyl)-phenyl]-amide]	238	
NS(=O)(=O)c1cccc(NC(=O)c2cnn3c(C(F)F)cc(-c4ccc(C(F)(F)F)c(OCC(F)(F)F)c4)nc23)c1 [Example 79, 7-Difluoromethyl-5-[3-(2,2,2-trifluoro-ethoxy)-4-trifluoromethyl-phenyl]-pyrazolo[1,5-a]pyrimidine-3-carboxylic acid(3-sulfamoyl-phenyl)-amide]	241	11
O=C(Nc1cccc(S(=O)(=O)NCc2ccncc2)c1)c1cnn2c(C(F)F)cc(-c3ccc(C(F)(F)F)cc3)nc12 [Example 88, 7-Difluoromethyl-5-(4-trifluoromethyl-phenyl)-pyrazolo[1,5-a]pyrimidine-3-carboxylic acid {3-[(pyridin-4-ylmethyl)-sulfamoyl]-phenyl}-amide]	221	15
O=C(Nc1cccc(S(=O)(=O)CCO)c1)c1cnn2c(C(F)F)cc(-c3ccc(C(F)(F)F)cc3)nc12 [Example 90, 7-Difluoromethyl-5-(4-trifluoromethyl-phenyl)-pyrazolo[1,5-a]pyrimidine-3-carboxylic acid [3-(2-hydroxy-ethanesulfonyl)-phenyl]-amide]	205	
O=C(Nc1cccc(S(=O)(=O)NCc2cccnc2)c1)c1cnn2c(C(F)F)cc(-c3ccc(C(F)(F)F)cc3)nc12 [Example 106, 7-Difluoromethyl-5-(4-trifluoromethyl-phenyl)-pyrazolo[1,5-a]pyrimidine-3-carboxylic acid {3-[(pyridin-3-ylmethyl)-sulfamoyl]-phenyl}-amide]	256	

Further lines, results first:

melting point [°C]	Ki (rat mGlu2 receptor) [nM]	SMILES
233	30	O=C(Nc1cccc(S(=O)(=O)N2CCOCC2)c1)c1cnn2c(C(F)(F)F)cc(-c3ccc(C(F)(F)F)cc3)nc12 [Example 1, 7-Trifluoromethyl-5-(4-trifluoromethyl-phenyl)-pyrazolo[1,5-a]pyrimidine-3-carboxylic acid[3-(morpholine-4-sulfonyl)-phenyl]-amide]
257		O=C(Nc1cccc(S(=O)(=O)NCC(F)(F)F)c1)c1cnn2c(C(F)F)cc(-c3ccc(C(F)(F)F)cc3)nc12 [Example 52, 7-Difluoromethyl-5-(4-trifluoromethyl-phenyl)-pyrazolo[1,5-a]pyrimidine-3-carboxylic acid [3-(2,2,2-trifluoro-ethylsulfamoyl)-phenyl]-amide]
228	67	O=C(Nc1cccc(S(=O)(=O)Nc2ccccc2)c1)c1cnn2c(C(F)F)cc(-c3ccc(C(F)(F)F)cc3)nc12 [Example 74, 7-Difluoromethyl-5-(4-trifluoromethyl-phenyl)-pyrazolo[1,5-a]pyrimidine-3-carboxylic acid(3-phenylsulfamoyl-phenyl)-amide]
231		O=C(Nc1cccc(S(=O)(=O)NCCO)c1)c1cnn2c(C(F)F)cc(-c3ccc(C(F)(F)F)cc3)nc12 [Example 83, 7-Difluoromethyl-5-(4-trifluoromethyl-phenyl)-pyrazolo[1,5-a]pyrimidine-3-carboxylic acid [3-(2-hydroxy-ethylsulfamoyl)-phenyl]-amide]
184	7	CN(C)CCNS(=O)(=O)c1cccc(NC(=O)c2cnn3c(C(F)F)cc(-c4ccc(C(F)(F)F)cc4)nc23)c1 [Example 144, 7-Difluoromethyl-5-(4-trifluoromethyl-phenyl)-pyrazolo[1,5-a]pyrimidine-3-carboxylic acid[3-(2-dimethylamino-ethylsulfamoyl)-phenyl]-amide]

— US7378417B2, “Pyrazolo-pyrimidine derivatives” (Hoffmann-La Roche Inc., priority 2004, dated 2008)
